{"source": "ChEMBL document CHEMBL1201862", "about": "“PubChem BioAssay data set” (2004)", "key": {"[1]": {"assay": "cells"}, "[2]": {"molecular_target": "Major prion protein (Homo sapiens, UniProt P04156)", "format": "functional, cell-based"}, "[3]": {"molecular_target": "T1, Coagulation factor XII (Homo sapiens, UniProt P00748)", "T1 sequence (P00748 whole entry)": "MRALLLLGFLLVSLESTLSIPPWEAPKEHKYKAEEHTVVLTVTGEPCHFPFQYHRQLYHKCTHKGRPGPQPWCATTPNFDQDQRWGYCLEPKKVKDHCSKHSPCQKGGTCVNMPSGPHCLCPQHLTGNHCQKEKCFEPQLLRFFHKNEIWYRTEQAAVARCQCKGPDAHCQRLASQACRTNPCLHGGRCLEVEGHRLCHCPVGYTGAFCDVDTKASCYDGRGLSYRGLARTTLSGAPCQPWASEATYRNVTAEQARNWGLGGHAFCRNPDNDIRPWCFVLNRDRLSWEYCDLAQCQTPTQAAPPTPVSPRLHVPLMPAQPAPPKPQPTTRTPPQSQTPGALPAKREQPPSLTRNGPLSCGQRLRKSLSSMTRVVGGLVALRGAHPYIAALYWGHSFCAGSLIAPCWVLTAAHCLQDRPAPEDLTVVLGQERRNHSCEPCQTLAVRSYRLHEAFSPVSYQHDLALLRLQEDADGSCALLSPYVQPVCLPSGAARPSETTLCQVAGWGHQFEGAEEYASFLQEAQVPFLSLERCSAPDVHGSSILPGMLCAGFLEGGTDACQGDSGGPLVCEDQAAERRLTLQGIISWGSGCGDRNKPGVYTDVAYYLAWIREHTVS", "format": "functional"}, "[4]": {"assay": "cells", "format": "functional, cell-based"}, "[5]": {"molecular_target": "T2, Trace amine-associated receptor 1 (Homo sapiens, UniProt Q96RJ0)", "T2 sequence (Q96RJ0 whole entry)": "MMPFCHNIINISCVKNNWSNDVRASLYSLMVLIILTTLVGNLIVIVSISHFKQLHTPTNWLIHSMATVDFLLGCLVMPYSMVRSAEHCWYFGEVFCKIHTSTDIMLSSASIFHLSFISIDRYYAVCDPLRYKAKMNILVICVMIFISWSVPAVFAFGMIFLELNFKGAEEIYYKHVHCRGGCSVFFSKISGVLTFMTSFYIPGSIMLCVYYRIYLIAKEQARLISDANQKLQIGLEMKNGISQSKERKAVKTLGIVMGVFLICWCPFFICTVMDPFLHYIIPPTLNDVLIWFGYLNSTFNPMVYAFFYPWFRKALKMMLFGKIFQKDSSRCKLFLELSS", "assay": "Counterscreen for agonists of the human trace amine associated receptor 1 (hTAAR1): Fluorescence-based cell-based high throughput dose response assay to identify hTAAR1 agonist that also desensitize TAAR1 receptor response.", "format": "functional"}, "[6]": {"molecular_target": "T2, Trace amine-associated receptor 1", "assay": "Fluorescence-based cell-based high throughput dose response assay to identify agonists of the human trace amine associated receptor 1 (TAAR1).", "format": "functional"}, "[7]": {"assay": "cells", "format": "functional, cell-based", "remark": "listed apart in the source"}, "[8]": {"molecular_target": "Voltage-dependent T-type calcium channel subunit alpha-1H (Homo sapiens, UniProt O95180)", "format": "functional"}, "[9]": {"molecular_target": "T3, Oxysterols receptor LXR-beta (Homo sapiens, UniProt P55055)", "T3 sequence (P55055 whole entry)": "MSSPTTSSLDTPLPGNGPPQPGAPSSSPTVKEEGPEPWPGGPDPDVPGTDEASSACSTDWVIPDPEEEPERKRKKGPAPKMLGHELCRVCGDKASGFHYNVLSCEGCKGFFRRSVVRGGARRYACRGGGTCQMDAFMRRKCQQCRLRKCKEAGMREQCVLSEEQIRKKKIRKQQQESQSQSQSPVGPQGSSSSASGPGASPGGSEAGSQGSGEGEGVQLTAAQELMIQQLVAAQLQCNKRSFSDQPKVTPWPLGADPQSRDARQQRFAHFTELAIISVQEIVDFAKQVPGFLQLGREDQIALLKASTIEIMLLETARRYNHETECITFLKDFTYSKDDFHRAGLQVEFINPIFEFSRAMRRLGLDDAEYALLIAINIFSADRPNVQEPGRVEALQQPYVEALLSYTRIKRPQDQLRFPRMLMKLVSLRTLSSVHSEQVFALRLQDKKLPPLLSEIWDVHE", "assay": "LXR agonists, Gal4 luciferase reporter, dose response, counter-screen for ssDAF-12 agonist project, cell-based, luminescence, HEK293, S. stercoralis campaign (AID 720737)", "format": "functional", "conditions": "read-out: IC50 (the source's name)"}, "[10]": {"assay": "Luminescence-based cell-based high throughput dose response assay to identify activators of the DAF-12 from the parasite S. stercoralis (ssDAF-12).", "format": "functional"}, "[11]": {"molecular_target": "Genome polyprotein (dengue virus type 2, UniProt P29990)", "assay": "flavivirus cap methylation enzyme inhibition – biochemical, confirmation dose response, primary screen (AID 588689)", "format": "functional"}, "[12]": {"molecular_target": "T4, Caspase-6 (Homo sapiens, UniProt P55212)", "T4 sequence (P55212 whole entry)": "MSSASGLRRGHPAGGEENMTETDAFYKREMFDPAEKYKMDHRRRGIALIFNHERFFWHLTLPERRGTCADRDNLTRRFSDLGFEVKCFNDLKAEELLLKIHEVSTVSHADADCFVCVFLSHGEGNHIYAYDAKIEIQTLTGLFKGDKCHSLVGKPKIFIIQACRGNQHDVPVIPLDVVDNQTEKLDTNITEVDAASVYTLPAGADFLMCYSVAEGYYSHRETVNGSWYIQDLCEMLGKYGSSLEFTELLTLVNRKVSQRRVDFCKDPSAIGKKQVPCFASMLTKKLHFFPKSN", "assay": "inhibition of CASP6 peptide cleavage – biochemical, VEID-R110 fluorescence, cherry-pick, dose response (AID 720632)"}, "[13]": {"assay": "reduced cellular PGC1a acetyl-lysine signal – cell-based, cherry-picked samples, dose response (AID 720514);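 also: potency may reflect raised or lowered acetylation signal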", "format": "functional"}, "[14]": {"assay": "OVCAR-3 cell viability loss – plate reader, dry powder samples, PAX8 inhibitor project, dose response (AID 743044)", "format": "functional, cell-based"}, "[15]": {"molecular_target": "Paired box protein Pax-8 (Homo sapiens, UniProt Q06710)", "assay": "PAX8 transcriptional activity inhibition in RMG-I – RMG-I cells, luciferase, cherry-pick, dose response (AID 687027);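 also: luciferase reporter driven by Pax8 target thyroperoxidase promoter measured by SteadyGlo luminescence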", "format": "functional, cell-based"}, "[16]": {"assay": "OVCAR8 cell viability loss – plate reader, dry powder samples, PAX8 project, dose response (AID 743197)", "format": "functional, cell-based", "conditions": "OVCAR-8"}, "[17]": {"assay": "IGROV1 cell killing – plate reader, dry powder samples, PAX8 inhibitor project, dose response (AID 743043)", "format": "functional, cell-based", "conditions": "IGROV-1"}, "[18]": {"assay": "blockade of melanocortin 4 receptor signaling – cell-based, plate reader, cherry pick, counter-screen for LGR2 antagonist project, dose response (AID 743444);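 also: transfected HEK 293 cells stimulated with alpha-MSH peptide; potency of inhibitors of the alpha-MSH evoked signal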", "format": "functional"}, "[19]": {"assay": "general cell-killing toxicity readout – plate reader, dry powder samples, cytotoxicity control for PAX8 inhibitor project, dose response (AID 743021)", "format": "functional, cell-based"}, "[20]": {"assay": "viability loss in HEK293 cells – cell-based, plate reader, cherry-picked samples, cytotoxicity control, dose response (AID 743446)", "format": "functional"}, "[21]": {"assay": "A549 cell cytotoxicity, dose response, cytotoxicity control, plate reader, cherry-pick, antagonist series (AID 743412)", "format": "functional, cell-based"}, "[22]": {"assay": "toxicity toward HepG2 liver cells – cell-based, plate reader, cherry-pick, antagonist series, cytotoxicity control, dose response (AID 743416)", "format": "functional"}}, "note": "Active and inactive are the calls of the source."}
{"smiles": "Cc1cc(SCCC(=O)O)nc2c(C)cccc12", "values": [{"measurement": "IC50", "setting": "[1]", "result": "> 138 µM (inactive)"}, {"measurement": "IC50", "setting": "[2]", "result": "4.67 µM (active)"}]}
{"smiles": "Cc1ccc(-c2nc(CS(=O)(=O)CC(=O)N3CCc4ccccc4C3)c(C)o2)cc1", "values": [{"measurement": "IC50", "setting": "[3]", "result": "> 50 µM (inactive)"}, {"measurement": "IC50", "setting": "[4]", "result": "> 29.9 µM (inactive)"}, {"measurement": "IC50", "setting": "[5]", "result": "5.4 µM (active)"}, {"measurement": "EC50", "setting": "[6]", "result": "2.23 µM (active)"}, {"measurement": "EC50", "setting": "[7]", "result": "> 29.9 µM (inactive)"}, {"measurement": "EC50", "setting": "[8]", "result": "2.21 µM (active)"}]}
{"smiles": "Cc1ccc(NC(=O)Nc2cccc(C(F)(F)F)c2)nc1", "values": [{"measurement": "EC50", "setting": "[9]", "result": "> 67.6 µM (inactive)"}, {"measurement": "IC50", "setting": "[10]", "result": "> 67.6 µM (inactive)"}]}
{"smiles": "COC(=O)c1c(C)oc2c1cc(NS(=O)(=O)c1ccc(C(=O)O)cc1)c1ccccc12", "values": [{"measurement": "IC50", "setting": "[11]", "result": "69 µM (active)"}, {"measurement": "AC50", "setting": "[12]", "result": "22.6 µM (active)"}]}
{"smiles": "Cc1ccc(NC(=O)c2ccccn2)c(Br)c1", "values": [{"measurement": "EC50", "setting": "[9]", "result": "> 67.5 µM (inactive)"}, {"measurement": "IC50", "setting": "[10]", "result": "> 67.5 µM (inactive)"}]}
{"smiles": "CN(CC(=O)Nc1cccc(F)c1)C(=O)c1cccc(S(=O)(=O)N2CCN(Cc3ccccc3)CC2)c1", "values": [{"measurement": "EC50", "setting": "[9]", "result": "> 67.5 µM (inactive)"}, {"measurement": "IC50", "setting": "[10]", "result": "> 67.5 µM (inactive)"}]}
{"smiles": "Cc1ccc(S(=O)(=O)N(C)C[C@H]2Oc3cc(C#Cc4ccncc4)ccc3S(=O)(=O)N([C@H](C)CO)C[C@H]2C)cc1", "values": [{"measurement": "AC50", "setting": "[13]", "result": "4.27 µM (active)"}, {"measurement": "AC50", "setting": "[14]", "result": "9.03 µM (active)"}, {"measurement": "AC50", "setting": "[15]", "result": "4.03 µM (active)"}, {"measurement": "AC50", "setting": "[16]", "result": "17.4 µM (active)"}]}
{"smiles": "C[C@@H]1CCCCO[C@H](CN(C)CC2CCCCC2)[C@H](C)CN([C@H](C)CO)C(=O)c2cc(NS(=O)(=O)c3ccccc3)ccc2O1", "values": [{"measurement": "AC50", "setting": "[17]", "result": "57.1 µM (active)"}, {"measurement": "AC50", "setting": "[18]", "result": "42.6 µM (active)"}, {"measurement": "AC50", "setting": "[19]", "result": "39.7 µM (active)"}, {"measurement": "AC50", "setting": "[20]", "result": "30.8 µM (active)"}, {"measurement": "AC50", "setting": "[14]", "result": "55 µM (active)"}, {"measurement": "AC50", "setting": "[15]", "result": "20.1 µM (active)"}, {"measurement": "AC50", "setting": "[21]", "result": "17.1 µM (active)"}, {"measurement": "AC50", "setting": "[16]", "result": "> 70 µM (inactive)"}, {"measurement": "AC50", "setting": "[22]", "result": "27.6 µM (active)"}]}
{"smiles": "COc1ccc(-c2ccc([C@@H]3[C@@H]4CN(C(=O)Nc5cccc(F)c5)C[C@H]3N4)cc2)cc1", "values": [{"measurement": "AC50", "setting": "[17]", "result": "28.4 µM (active)"}, {"measurement": "AC50", "setting": "[19]", "result": "41 µM (active)"}, {"measurement": "AC50", "setting": "[14]", "result": "18.9 µM (active)"}, {"measurement": "AC50", "setting": "[15]", "result": "5.09 µM (active)"}, {"measurement": "AC50", "setting": "[16]", "result": "58.5 µM (active)"}]}
{"smiles": "COC(=O)C1=C(C)N(Cc2cccc(C(F)(F)F)c2)C(NCc2ccc(OC)cc2)=NC1c1cccc(F)c1", "note": "(stereo not drawn)", "values": [{"measurement": "AC50", "setting": "[19]", "result": "33.3 µM (active)"}, {"measurement": "AC50", "setting": "[15]", "result": "11.5 µM (active)"}]}
{"smiles": "CC(C)C#Cc1ccc2c(c1)O[C@@H](CN(C)Cc1ccccc1)[C@@H](C)CN([C@@H](C)CO)S2(=O)=O", "values": [{"measurement": "AC50", "setting": "[13]", "result": "16 µM (active)"}]}
{"smiles": "COCc1ccc(CN2CCC(n3nccc3NC(=O)c3ccc4c(c3)OCO4)CC2)o1", "values": [{"measurement": "AC50", "setting": "[13]", "result": "29.9 µM (active)"}]}
